# Patent US20250144179A1, “PEPTIDE HORMONE TO PREVENT OR TREAT VASOSPASM, BRAIN INJURY OR CEREBRAL EDEMA” (UNIVERSITY OF FLORIDA RESEARCH FOUNDATION, INCORPORATED, priority 2022, published 2025)
# Test system: wild-type mice, SAH model
# Assay: Delayed cerebral vessel casting, MCA diameter (vasospasm) after SAH
# Assay type: in vivo, mouse
# Method: Synthetic adropin^34-76 peptide was supplied from Bachem (Bubendorf, Switzerland) and diluted in 0.1% BSA in saline. 0.1% BSA in saline was used as vehicle control for all experiments. […] For experiments ending at 24 hours post-SAH, an identical dose of adropin/vehicle was given again 12 hours later. For experiments ending 7 days post-SAH, adropin/vehicle was given again on days 1, 3 & 5 post-SAH. In the aneurysm rupture model, adropin was given at a dose of 450 nmol/kg starting 3 days before aneurysm induction (elastase injection). Adropin was given every other day until sacrifice
# SAH was modeled using the anterior circulation single autologous blood injection method^25,33 with minor adjustments. Mice were anesthetized with ketamine (100 mg/kg) and xylazine (10 mg/kg) before removing hair from scalp and cleaning with serial betadine—saline washes. […]
# Middle cerebral artery diameter were measured as previously reported.^36,37 One week post-SAH, mice were deeply anesthetized with ketamine and xylazine before being serially perfused through the left ventricle with PBS (5 mL), 4% PFA (15 mL), and 20% India ink dissolved in 5% gelatin. […] Brains were imaged and analyzed by an observer blinded to group assignment. The narrowest diameter within the first 2000 μm of the middle cerebral artery (MCA) after the terminal interior carotid artery bifurcation (M1 segment) was measured to assess vasospasm. […]
substance,measurement,setting,value
adropin (CHSRSADVDSLSESSPNSSPGPCPEKAPPPQKPSHEGSYLLQP) [Synthetic adropin^34-76 peptide from Bachem],ipsilateral MCA diameter (cerebral vasospasm),"seven days post-SAH, treatment started 15 minutes post-SAH",adropin-treatment reversed this phenotype
same,cerebral vasospasm (MCA diameter),treatment initiated at 24 hours post-SAH,strong trend for reduced cerebral vasospasm
